Measured values as given in patent publication US7081473B2, “Agent for preventing/ameliorating obesity comprising methylidene hydrizide compound as active ingredient” (Sanwa Kagaku Kenkyusho Co., Ltd., priority 2002, dated 2006).

Tests used:
GIP = conditions: disclosed in WO 01/87341; read-out: IC50 (inhibiting the functions of GIP); cited from earlier work
human GIP receptor = target: T1, human GIP receptor (Homo sapiens, UniProt P48546); experiment: Inhibition of cAMP production by GIP stimulation in human GIP receptor-expressing CHO cells; format: cell-based; conditions: for IC50: 100 pM GIP, 37° C., 30 minutes, human GIP receptor-expressing CHO cells, read-out: IC50 (concentration of the compound at which the production of cAMP by GIP is inhibited by 50%)
T1 construct: expressed in transfected cells; host or cells: CHO cells
T1 sequence (P48546 22-466): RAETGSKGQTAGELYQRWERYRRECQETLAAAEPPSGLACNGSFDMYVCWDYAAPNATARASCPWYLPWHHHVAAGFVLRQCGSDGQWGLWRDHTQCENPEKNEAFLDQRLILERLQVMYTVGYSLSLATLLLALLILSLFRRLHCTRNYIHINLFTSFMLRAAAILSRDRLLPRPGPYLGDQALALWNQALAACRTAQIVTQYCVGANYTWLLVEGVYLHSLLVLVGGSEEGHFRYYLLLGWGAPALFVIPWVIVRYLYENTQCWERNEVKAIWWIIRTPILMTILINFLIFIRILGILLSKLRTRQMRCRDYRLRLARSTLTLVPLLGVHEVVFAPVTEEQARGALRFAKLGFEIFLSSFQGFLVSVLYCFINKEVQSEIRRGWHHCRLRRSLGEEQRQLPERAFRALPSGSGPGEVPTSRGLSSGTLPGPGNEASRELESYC
Text: The system for evaluation of GIP function inhibitors (GIP receptor antagonists and the like) made use of the following method wherein their inhibitory activity on production of cAMP as GIP intracellular transmitter was used as an indicator.
According to a method of Kubota et al. (Diabetes 45: 1701–1705, 1996), human GIP receptor-expressing cells prepared by introducing GIP cDNA into CHO cells were used. First, cAMP was produced by stimulation with 100 pM GIP in the presence/absence of the test chemical at 37° C. for 30 minutes in phosphate-buffered saline, pH 7.4, containing 1 mM isobutylmethylxanthine, 5.6 mM glucose and 0.5% bovine serum albumin. Then, using a cAMP assay system (PE Biosystems), the cells were lyzed with an attached lysis buffer, the amount of cAMP accumulated in the cells was measured, and the inhibitory activity of the test sample on the functions of GIP was determined. To verify the action of the test sample completely irrelevant to the action on GIP receptor, the inhibitory effect of the test sample on formation of cAMP upon stimulating, with 5 μM forskolin, CHO cells into which the GIP receptor gene had not been introduced (cells not expressing the GIP receptor) was also confirmed. The inhibitory activity was expressed in terms of IC50 (concentration of the compound at which the production of cAMP by GIP is inhibited by 50%). A compound not showing any inhibitory activity on formation of cAMP in the cells not expressing the GIP receptor, but inhibiting the formation of cAMP by stimulation with GIP, in the cells expressing the GIP receptor, was regarded as an active compound.

| Structure (SMILES) | IC50 (human GIP receptor) [µM] | IC50 (GIP) [µM] | inhibition of cAMP formation upon stimulation with GIP (functions of GIP) (human GIP receptor; cells expressing the GIP receptor, result in words) |
| --- | --- | --- | --- |
| Cc1cc(O)n2nc(-c3ccccc3)c(Br)c2n1 [3-bromo-5-methyl-2-phenylpyrazolo[1,5-a]pyrimidin-7-ol] |  | ~40 |  |
| O=C(N/N=C/c1ccc2c(ccn2Cc2ccc(Cl)s2)c1)c1ccc(O)c(Cl)c1 [Compound 4, 3-Chloro-4-hydroxybenzoic acid [1-(5-chlorothiophen-2-ylmethyl)-1H-indol-5-yl]methylidene hydrazide] | 0.44 |  |  |

The remaining compounds from weak to strong by IC50 (human GIP receptor), led by results:

| IC50 (human GIP receptor) [µM] | Structure (SMILES) | IC50 (GIP) [µM] | inhibition of cAMP formation upon stimulation with GIP (functions of GIP) (human GIP receptor; cells expressing the GIP receptor, result in words) |
| --- | --- | --- | --- |
| 19 | O=C(N/N=C/c1ccccc1Br)c1ccc(O)cc1 [Compound 1] |  | inhibited the functions of GIP though at low levels |
| 0.56 | COc1ccc(/C=N/NC(=O)c2ccc(O)c(Cl)c2)c2ccccc12 [Compound 3, 3-Chloro-4-hydroxybenzoic acid (4-methoxynaphthalen-1-yl)methylidene hydrazide] |  |  |
| 0.0063 | Cc1cc(C)c(C)c(Cn2ccc3c(/C=N/NC(=O)c4ccc(O)c(C#N)c4)cccc32)c1C [Compound 2, 3-Cyano-4-hydroxybenzoic acid [1-(2,3,5,6-tetramethylbenzyl)indol-4-yl]methylidene hydrazide] |  |  |
